According to patent US20230365592A1 (Agios Pharmaceuticals, Inc., priority 2022, published 2023):

target: T1, human PAH with the R408W mutation (Homo sapiens, UniProt P00439, R408W); experiment: Cell Based Phenylalanine Flux Assay; conditions: A375 cells expressing human R408W PAH; 24 hrs compound incubation; 13C-Tyrosine by LC-MS; average where tested multiple times; read-out: AC50;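 further: after compound treatment, cells received sepiapterin plus isotope-labelled Phenylalanine for 4 hours, then labelled Tyrosine in the medium was quantified, 10-point 2-fold dilution series run in duplicate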
T1 construct: expressed in transfected cells
T1 sequence (P00439 1-452 R408W): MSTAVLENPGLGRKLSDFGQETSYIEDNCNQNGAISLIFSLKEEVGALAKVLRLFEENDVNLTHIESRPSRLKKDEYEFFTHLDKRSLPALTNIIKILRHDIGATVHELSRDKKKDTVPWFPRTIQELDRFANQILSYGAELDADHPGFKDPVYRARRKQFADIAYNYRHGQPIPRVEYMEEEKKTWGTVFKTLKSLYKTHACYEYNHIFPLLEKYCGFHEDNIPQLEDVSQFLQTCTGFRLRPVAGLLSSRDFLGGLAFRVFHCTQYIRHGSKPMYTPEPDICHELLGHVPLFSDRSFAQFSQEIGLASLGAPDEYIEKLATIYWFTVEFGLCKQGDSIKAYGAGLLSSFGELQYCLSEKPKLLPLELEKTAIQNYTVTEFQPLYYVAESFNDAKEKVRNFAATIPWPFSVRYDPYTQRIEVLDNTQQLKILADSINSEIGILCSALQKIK

SMILES	AC50 [nM]
Cn1nc(Cl)nc1C(=O)N1CCc2[nH]cnc2[C@@H]1c1cc2c(Cl)cccn2n1 [Example 1055, (R)-(3-chloro-1-methyl-1H-1,2,4-triazol-5-yl)(4-(4-chloropyrazolo[1,5-a]pyridin-2-yl)-6,7-dihydro-1H-imidazo[4,5-c]pyridin-5(4H)-yl)methanone]	1000 to 5000
Cc1cccn2nc([C@@H]3c4nc[nH]c4CCN3C(=O)c3nc(C(F)(F)F)nn3C)cc12 [Example 1056, (S)-(1-methyl-3-(trifluoromethyl)-1H-1,2,4-triazol-5-yl)(4-(4-methylpyrazolo[1,5-a]pyridin-2-yl)-6,7-dihydro-1H-imidazo[4,5-c]pyridin-5(4H)-yl)methanone]	< 500
Cc1cccn2nc([C@H]3c4nc[nH]c4CCN3C(=O)c3nc(C(F)(F)F)nn3C)cc12 [Example 1057, (R)-(1-methyl-3-(trifluoromethyl)-1H-1,2,4-triazol-5-yl)(4-(4-methylpyrazolo[1,5-a]pyridin-2-yl)-6,7-dihydro-1H-imidazo[4,5-c]pyridin-5(4H)-yl)methanone]	> 5000
Cc1cccn2nc([C@@H]3c4nc[nH]c4CCN3C(=O)c3nc(C4CC4)nn3C)cc12 [Example 1058, (S)-(3-cyclopropyl-1-methyl-1H-1,2,4-triazol-5-yl)(4-(4-methylpyrazolo[1,5-a]pyridin-2-yl)-6,7-dihydro-1H-imidazo[4,5-c)pyridin-5(4H)-yl)methanone]	500 to 1000
Cn1nc(C(F)F)nc1C(=O)N1CCc2[nH]cnc2[C@H]1c1cc2c(C(F)(F)F)cccn2n1 [Example 1060, (S)-(3-(difluoromethyl)-1-methyl-1H-1,2,4-triazol-5-yl)(4-(4-(trifluoromethyl)pyrazolo[1,5-a]pyridin-2-yl)-6,7-dihydro-1H-imidazo[4,5-c]pyridin-5(4H)-yl)methanone]	< 500
O=C(c1ccnn1C(F)F)N1CCc2[nH]cnc2[C@H]1c1cc2cccc(Cl)n2n1 [Example 1064, (S)-(4-(7-chloropyrazolo[1,5-a]pyridin-2-yl)-6,7-dihydro-1H-imidazo[4,5-c]pyridin-5(4H)-yl)(1-(difluoromethyl)-1H-pyrazol-5-yl)methanone]	500 to 1000
Cn1cc(-c2nnc(C(=O)N3CCc4[nH]cnc4[C@H]3c3cc4cccc(Cl)n4n3)o2)cn1 [Example 1066, (S)-(4-(7-chloropyrazolo[1,5-a]pyridin-2-yl)-6,7-dihydro-1H-imidazo[4,5-c]pyridin-5(4H)-yl)(5-(1-methyl-1H-pyrazol-4-yl)-1,3,4-oxadiazol-2-yl)methanone]	< 500
O=C(c1ocnc1C(F)F)N1CCc2[nH]cnc2[C@H]1c1cc2ccc(F)cn2n1 [Example 1068, (S)-(4-(difluoromethyl)oxazol-5-yl)(4-(6-fluoropyrazolo[1,5-a]pyridin-2-yl)-6,7-dihydro-1H-imidazo[4,5-c]pyridin-5(4H)-yl)methanone]	< 500
O=C(c1ocnc1C(F)F)N1CCc2[nH]cnc2[C@@H]1c1cc2ccc(F)cn2n1 [Example 1069, (R)-(4-(difluoromethyl)oxazol-5-yl)(4-(6-fluoropyrazolo[1,5-a]pyridin-2-yl)-6,7-dihydro-1H-imidazo[4,5-c]pyridin-5(4H)-yl)methanone]	1000 to 5000
CC(C)(O)c1nc(C(F)F)c(C(=O)N2CCc3[nH]cnc3[C@H]2c2cc3ccc(F)cn3n2)o1 [Example 1070, (S)-(4-(difluoromethyl)-2-(2-hydroxypropan-2-yl)oxazol-5-yl)(4-(6-fluoropyrazolo[1,5-a]pyridin-2-yl)-6,7-dihydro-1H-imidazo[4,5-c]pyridin-5(4H)-yl)methanone]	< 500
CC(C)(O)c1nc(C(F)F)c(C(=O)N2CCc3[nH]cnc3[C@@H]2c2cc3ccc(F)cn3n2)o1 [Example 1071, (R)-(4-(difluoromethyl)-2-(2-hydroxypropan-2-yl)oxazol-5-yl)(4-(6-fluoropyrazolo[1,5-a]pyridin-2-yl)-6,7-dihydro-1H-imidazo[4,5-c]pyridin-5(4H)-yl)methanone]	> 5000
Cn1nc(C2CC2)nc1C(=O)N1CCc2[nH]cnc2[C@H]1c1cc2c(Cl)cccn2n1 [Example 1072, (S)-(4-(4-chloropyrazolo[1,5-a]pyridin-2-yl)-6,7-dihydro-1H-imidazo[4,5-c]pyridin-5(4H)-yl)(3-cyclopropyl-1-methyl-1H-1,2,4-triazol-5-yl)methanone]	500 to 1000
Cc1cccn2nc([C@@H]3c4nc[nH]c4CCN3C(=O)c3nc(Cl)nn3C)cc12 [Example 1076, (S)-(3-chloro-1-methyl-1H-1,2,4-triazol-5-yl)(4-(4-methylpyrazolo[1,5-a]pyridin-2-yl)-6,7-dihydro-1H-imidazo[4,5-c]pyridin-5(4H)-yl)methanone]	< 500
Cn1nc(Cl)nc1C(=O)N1CCc2[nH]cnc2[C@H]1c1cc2c(C(F)(F)F)cccn2n1 [Example 1078, (S)-(3-chloro-1-methyl-1H-1,2,4-triazol-5-yl)(4-(4-(trifluoromethyl)pyrazolo[1,5-a]pyridin-2-yl)-6,7-dihydro-1H-imidazo[4,5-c]pyridin-5(4H)-yl)methanone]	< 500
Cn1nc(C2CC2)nc1C(=O)N1CCc2[nH]cnc2[C@H]1c1cc2c(C(F)(F)F)cccn2n1 [Example 1081, (S)-(3-cyclopropyl-1-methyl-1H-1,2,4-triazol-5-yl)(4-(4-(trifluoromethyl)pyrazolo[1,5-a]pyridin-2-yl)-6,7-dihydro-1H-imidazo[4,5-c]pyridin-5(4H)-yl)methanone]	< 500
Cc1nc(C(=O)N2CCc3[nH]cnc3[C@H]2c2cc3c(C(F)(F)F)cccn3n2)n(C)n1 [Example 1082, (S)-(1,3-dimethyl-1H-1,2,4-triazol-5-yl)(4-(4-(trifluoromethyl)pyrazolo[1,5-a]pyridin-2-yl)-6,7-dihydro-1H-imidazo[4,5-c]pyridin-5(4H)-yl)methanone]	< 500
CC(C)(O)c1nc(C(F)F)c(C(=O)N2CCc3[nH]cnc3[C@H]2c2cc3cc(F)ccn3n2)o1 [Example 1084, (S)-(4-(difluoromethyl)-2-(2-hydroxypropan-2-yl)oxazol-5-yl)(4-(5-fluoropyrazolo[1,5-a]pyridin-2-yl)-6,7-dihydro-1H-imidazo[4,5-c]pyridin-5(4H)-yl)methanone]	< 500
CC(C)(O)c1nc(C(F)F)c(C(=O)N2CCc3[nH]cnc3[C@@H]2c2cc3cc(F)ccn3n2)o1 [Example 1085, (R)-(4-(difluoromethyl)-2-(2-hydroxypropan-2-yl)oxazol-5-yl)(4-(5-fluoropyrazolo[1,5-a]pyridin-2-yl)-6,7-dihydro-1H-imidazo[4,5-c]pyridin-5(4H)-yl)methanone]	1000 to 5000
Cc1cccc2cc([C@@H]3c4nc[nH]c4CCN3C(=O)c3nc(Cl)nn3C)nn12 [Example 1086, (S)-(3-chloro-1-methyl-1H-1,2,4-triazol-5-yl)(4-(7-methylpyrazolo[1,5-a]pyridin-2-yl)-6,7-dihydro-1H-imidazo[4,5-c]pyridin-5(4H)-yl)methanone]	< 500
O=C(c1ccnn1C(F)F)N1CCc2[nH]cnc2[C@H]1c1cc2ccc(F)cn2n1 [Example 1088, (S)-(1-(difluoromethyl)-1H-pyrazol-5-yl)(4-(6-fluoropyrazolo[1,5-a]pyridin-2-yl)-6,7-dihydro-1H-imidazo[4,5-c]pyridin-5(4H)-yl)methanone]	500 to 1000
O=C(c1ccnn1C(F)F)N1CCc2[nH]cnc2[C@@H]1c1cc2ccc(F)cn2n1 [Example 1089, (R)-(1-(difluoromethyl)-1H-pyrazol-5-yl)(4-(6-fluoropyrazolo[1,5-a]pyridin-2-yl)-6,7-dihydro-1H-imidazo[4,5-c]pyridin-5(4H)-yl)methanone]	> 5000
O=C(c1nnc(-c2ccccn2)o1)N1CCc2[nH]cnc2[C@H]1c1cc2ccc(F)cn2n1 [Example 1090, (S)-(4-(6-fluoropyrazolo[1,5-a]pyridin-2-yl)-6,7-dihydro-1H-imidazo[4,5-c]pyridin-5(4H)-yl)(5-(pyridin-2-yl)-1,3,4-oxadiazol-2-yl)methanone]	500 to 1000
O=C(c1nnc(-c2ccccn2)o1)N1CCc2[nH]cnc2[C@@H]1c1cc2ccc(F)cn2n1 [Example 1091, (R)-(4-(6-fluoropyrazolo[1,5-a]pyridin-2-yl)-6,7-dihydro-1H-imidazo[4,5-c]pyridin-5(4H)-yl)(5-(pyridin-2-yl)-1,3,4-oxadiazol-2-yl)methanone]	> 5000
O=C(c1ccnn1C(F)F)N1CCc2[nH]cnc2[C@H]1c1cc2cc(F)ccn2n1 [Example 1092, (S)-(1-(difluoromethyl)-1H-pyrazol-5-yl)(4-(5-fluoropyrazolo[1,5-a]pyridin-2-yl)-6,7-dihydro-1H-imidazo[4,5-c]pyridin-5(4H)-yl)methanone]	500 to 1000
O=C(c1ccnn1C(F)F)N1CCc2[nH]cnc2[C@@H]1c1cc2cc(F)ccn2n1 [Example 1093, (R)-(1-(difluoromethyl)-1H-pyrazol-5-yl)(4-(5-fluoropyrazolo[1,5-a]pyridin-2-yl)-6,7-dihydro-1H-imidazo[4,5-c]pyridin-5(4H)-yl)methanone]	1000 to 5000
O=C(c1nnc(C2CC2)o1)N1CCc2[nH]cnc2[C@H]1c1cc2c(Cl)cccn2n1 [Example 1094, (S)-(4-(4-chloropyrazolo[1,5-a]pyridin-2-yl)-6,7-dihydro-1H-imidazo[4,5-c]pyridin-5(4H)-yl)(5-cyclopropyl-1,3,4-oxadiazol-2-yl)methanone]	< 500
